Assay [1] has as its system growth hormone secretion. Description: In vivo growth hormone secretion test. From the text:
(§1) The potency of each compound is reported at the end of each example illustrating its production. […] In addition, the maximum dose employed to evaluate control of growth hormone, insulin and glucagon secretion is reported.

The subject of assay [2] is gastric secretion (total gastric volume, hydrogen ion secretion, hydrogen ion concentration). In words: Anti-secretory activity in pylorus-ligated (Shay) rat, s.c. The settings on record: for hydrogen ion secretion / total gastric volume: at the reported potency dose (IV 26.3 mg/kg; V and VI 4.40 mg/kg); for Antisecretory potency: lowest dose administered at which two of the three parameters (total gastric volume, hydrogen ion secretion, hydrogen ion concentration) were significantly decreased: pylorus-ligated male Charles River rats, 4 hours after ligation. Format: in vivo. As for the experimental part: Each of the polypeptides of this invention was tested and found active parenterally (s.c.) in the scientifically recognized, standard test for anti-secretory activity which involves the following procedure in which male Charles River rats weighing 190-260 grams are deprived of food but not water for eighteen hours prior to use. Water is withheld during the actual experiment. The rats are weighed, anesthetized with ether and the pylorus is ligated according to the method of Shay et al., Gastroenterology, 26, 906-913 (1954). Treatment or vehicle control is then administered subcutaneously (s.c.). The rats are housed two per cage and sacrificed with CO2 four hours after ligation. The stomachs are removed, rinsed, and contents emptied into a graduated centrifuge tube. The tubes are centrifuged for twenty minutes at two thousand revolutions per minute and the volume of gastric juice is recorded. Any sample which is obviously contaminated with feces, food or blood is eliminated. An aliquot of each sample is frozen for later analysis of pepsin. The pH is measured and one milliliter of gastric juice is titrated with 0.1 N NaOH to a pH of 7.0-7.4. The data are analyzed by analysis of variance and, using the pooled error variance, t-comparisons are made between the groups.
as §1

Assay [3] concerns glucagon secretion. Description: In vivo glucagon secretion test.
From the text: as §1

The test system of assay [4] is insulin secretion. In words: In vivo insulin secretion test.
From the text: as §1

Assay [5] concerns gastric acid secretion. The settings on record: dose as high as 2 μm/Kg, s.c.; cited from earlier work.

We go through 5 compounds from US4210636A, “Antisecretory polypeptides” (American Home Products Corporation, priority 1978, dated 1980).

Bridge positions count the residues as written; N and C are the ends. Square brackets hold non-standard residues; d marks the D form. Peptide text beside a SMILES is read from it. Mpa = O=C(O)CCS

In the case of `C[C@@H](O)[C@@H]1NC(=O)[C@H](Cc2ccccc2)NC(=O)[C@H]([C@@H](C)O)NC(=O)[C@H](CCCCN)NC(=O)[C@H](Cc2c[nH]c3ccccc23)NC(=O)[C@H](Cc2ccccc2)NC(=O)[C@H](Cc2ccccc2)NC(=O)[C@H](CC(N)=O)NC(=O)CCSSC[C@@H](C(=O)O)NC(=O)[C@H](CO)NC1=O` [V, β-Mercaptopropionyl-L-asparaginyl-L-phenylalanyl-L-phenylalanyl-L-tryptophyl-L-lysyl-L-threonyl-L-phenylalanyl-L-threonyl-L-seryl-L-cysteine cyclic (1→11) disulfide] ([Mpa]NFFWKTFTSC-OH; disulfide 1-11), the “Growth hormone secretion not inhibited at highest dose tested” value (“Growth hormone secretion not inhibited” below) in assay [1] is recorded as more than 1.90 mg/kg. Also, in assay [2] (pylorus-ligated rat), the hydrogen ion secretion result was “significantly reduced” and the total gastric volume result is “significantly reduced”. The “Antisecretory potency: lowest dose administered at which two of the three parameters (total gastric volume, hydrogen ion secretion, hydrogen ion concentration) were significantly decreased” value in assay [2] amounted to 4.40 mg/kg. The “Glucagon secretion not inhibited at highest dose tested” value (“Glucagon secretion not inhibited” below) in assay [3] is reported as more than 1.90 mg/kg. The “Insulin secretion not inhibited at highest dose tested” value (from here on “Insulin secretion not inhibited”) in assay [4] is more than 1.90 mg/kg.

On to D-Lys^9 -SRIF, for which the “effect on gastric acid secretion” value in assay [5] was “no appreciable effect”.

Take `C[C@@H]1NC(=O)[C@H](CCCCN)NC(=O)[C@@H](N)CSSC[C@@H](C(=O)O)NC(=O)[C@H](CO)NC(=O)[C@H]([C@@H](C)O)NC(=O)[C@H](Cc2ccccc2)NC(=O)[C@H]([C@@H](C)O)NC(=O)[C@H](CCCCN)NC(=O)[C@H](Cc2c[nH]c3ccccc23)NC(=O)[C@H](Cc2ccccc2)NC(=O)[C@H](CO)NC1=O` [IV, L-Cysteinyl-L-lysyl-L alanyl-L-seryl-L-phenylalanyl-L-tryptophyl-L-lysyl-L-threonyl-L-phenylalanyl-L-threonyl-L-seryl-L-cysteine cyclic (1→12) disulfide] (H-CKASFWKTFTSC-OH; disulfide 1-12): the “Growth hormone secretion not inhibited” value in assay [1] is reported as more than 3.10 mg/kg. Moreover, in assay [2] (pylorus-ligated rat), the hydrogen ion secretion result was “significantly reduced” and the total gastric volume result is “significantly reduced”. Besides, the “Antisecretory potency: lowest dose administered at which two of the three parameters (total gastric volume, hydrogen ion secretion, hydrogen ion concentration) were significantly decreased” value in assay [2] was 26.3 mg/kg. Besides, the “Glucagon secretion not inhibited” value in assay [3] is more than 3.10 mg/kg. In assay [4], the “Insulin secretion not inhibited” value is more than 3.10 mg/kg.

For the compound `C[C@H](N)C(=O)NCC(=O)N[C@H]1CSSC[C@@H](C(=O)O)NC(=O)[C@H](CO)NC(=O)[C@H]([C@@H](C)O)NC(=O)[C@H](Cc2ccccc2)NC(=O)[C@H]([C@@H](C)O)NC(=O)[C@H](CCCCN)NC(=O)[C@H](Cc2c[nH]c3ccccc23)NC(=O)[C@H](Cc2ccccc2)NC(=O)[C@H](Cc2ccccc2)NC(=O)[C@H](CC(N)=O)NC(=O)[C@H](CCCCN)NC1=O` [Somatostatin, reference compound], the “Dose that effectively inhibits secretion of growth hormone” value in assay [1] (reference) is “about 10 micrograms per kilogram”. Moreover, the “Dose that effectively inhibits secretion of glucagon” value in assay [3] (reference) is “about 10 micrograms per kilogram”. The “Dose that effectively inhibits secretion of insulin” value in assay [4] (reference) is recorded as “about 10 micrograms per kilogram”.

As for `CSCC[C@@H]1NC(=O)[C@H](Cc2ccccc2)NC(=O)[C@H](CC(N)=O)NC(=O)[C@H](CCCCN)NC(=O)[C@@H](NC(=O)CNC(=O)[C@H](C)N)CSSC[C@@H](C(=O)O)NC(=O)[C@H](CO)NC(=O)[C@H]([C@@H](C)O)NC(=O)[C@H](Cc2ccccc2)NC(=O)[C@H]([C@@H](C)O)NC(=O)[C@H](CCCCN)NC(=O)[C@H](Cc2c[nH]c3ccccc23)NC1=O` [VI, L-Alanyl-glycyl-L-cysteinyl-L-lysyl-L-asparaginyl-L-phenylalanyl-L-methionyl-L-tryptophyl-L-lysyl-L-threonyl-L-phenylalanyl-L-threonyl-L-seryl-L-cystein cyclic (3→14) disulfide] (H-AGCKNFMWKTFTSC-OH; disulfide 3-14), the “Growth hormone secretion not inhibited” value in assay [1] was more than 1.0 mg/kg. For the same compound, the “pH (gastric juice)” value in assay [2] (at 4.40 mg/kg, pylorus-ligated rat) is “significantly reduced”. In assay [2] (pylorus-ligated rat), the hydrogen ion secretion result is given as “significantly reduced” and the total gastric volume entry was “significantly reduced”. Also, in assay [2], the “Antisecretory potency: lowest dose administered at which two of the three parameters (total gastric volume, hydrogen ion secretion, hydrogen ion concentration) were significantly decreased” value came out at 4.40 mg/kg. Besides, the “Glucagon secretion not inhibited” value in assay [3] was more than 1.0 mg/kg. For the same compound, the “Insulin secretion not inhibited” value in assay [4] was more than 1.0 mg/kg.
